The record followed here is the OligoGym collection.

Where “and” joins values, the source holds several entries; their conditions need not be identical. Identical values can stand only once. After the bases stand the sugars from the 5' end (letter, count) and the backbone: PS all phosphorothioate, else s phosphorothioate and o phosphodiester by linkage. Methylation of C is not given here. e = 2'-O-(2-methoxyethyl) (MOE); k = constrained ethyl (cEt); d = 2'-deoxy (DNA)

The target in one data set is MALAT1. The conditions noted are these: ASO, A431, 0.005 µM.
Consider CCGCCTGAGCCCCGGG (sugars k3 d10 k3, PS), for which the target mRNA inhibition was -9%. Same read-out and setting: the value for CTTTAAATTGGTAGCT (sugars k3 d10 k3, PS) was 45%; that for CTCAGTACGAAACTCC (sugars k3 d10 k3, PS) was 30%. On the same count and under the same terms, next, CCTTGAAACCGATTAT (sugars k3 d10 k3, PS): 36%; TACCACTCCCAATTAA (sugars k3 d10 k3, PS): 12%. Still for that read-out and setting: the value for ATTTTAAACGGGTCAT (sugars k3 d10 k3, PS) was 7%; that for AAGAGTAACTACCAGC (sugars k3 d10 k3, PS) was 6%; that for TTTAAATGACGCAATT (sugars k3 d10 k3, PS) was 15%.

Turning to GGCAAATCGCCATGGA (sugars k3 d10 k3, PS), the target mRNA inhibition stood at 22%. The same measure, in the same setting: next, TACCTTGAAACCGATT (sugars k3 d10 k3, PS): 36%; ATCAAACACTGGTTCC (sugars k3 d10 k3, PS): 48%; TCTAATCACTGTCAAT (sugars k3 d10 k3, PS): 32%.

Regarding AGGATGAAATGCCTCT (sugars k3 d10 k3, PS), the target mRNA inhibition came out at 22%. GAGATTTGGGCTTTAT (sugars k3 d10 k3, PS): the target mRNA inhibition was 34% and 33%. AACAGTACTGCATTTA (sugars k3 d10 k3, PS): the target mRNA inhibition turned out to be 36%. On the same count and under the same terms, the value for GAAAGTGCCATGGTTG (sugars k3 d10 k3, PS) was 41%.

On to TGGGAATACTCTTCCA (sugars k3 d10 k3, PS), for which the target mRNA inhibition was 11%. Still for that read-out and setting: next, TCATACACTCACTAGA (sugars k3 d10 k3, PS): -22%. Same read-out and setting: the value for TCTACCGTTTTTCAGC (sugars k3 d10 k3, PS) was 26%; that for TCCTTCACCAAATCGC (sugars k3 d10 k3, PS) was 36%; that for CGTTACGAAAGTCCTT (sugars k3 d10 k3, PS) was 25%.

Turning to CTGCGGTTTCCTCAAG (sugars k3 d10 k3, PS), the target mRNA inhibition amounted to 29%.

Turning to GGCAGTTATATTAGGT (sugars k3 d10 k3, PS), the target mRNA inhibition stood at 16%. As to TGGTTAGGTATGAGCT (sugars k3 d10 k3, PS), the target mRNA inhibition came out at 4%.

As for GTCTGATTATCCTGAT (sugars k3 d10 k3, PS), the target mRNA inhibition worked out at 33%.

On to TAGGGCTTCTCAAAAC (sugars k3 d10 k3, PS), for which the target mRNA inhibition is 4%. Still for that read-out and setting: the value for CCTAGCTTCCTTCACC (sugars k3 d10 k3, PS) was 17%; that for TCAAGGTCTTTTAATC (sugars k3 d10 k3, PS) was 41%. The same measure, in the same setting: next, CCCAGTTTGTCAATAG (sugars k3 d10 k3, PS): 39%; GGCTATCAAATTCATT (sugars k3 d10 k3, PS): 42%. In the case of ATAACAAGTTTAAGGG (sugars k3 d10 k3, PS), the target mRNA inhibition was found to be 41%.

As to TGAAGGATGAAATGCC (sugars k3 d10 k3, PS), the target mRNA inhibition is 29%. On the same count and under the same terms, the value for CTGCAGATGCAAGTTA (sugars k3 d10 k3, PS) was 49%; that for TCCGTCATGTTTTAGA (sugars k3 d10 k3, PS) was 50% and 48%. For the sequence CCACGCCAACACAGTT (sugars k3 d10 k3, PS), the target mRNA inhibition amounted to 31%. The same measure, in the same setting: next, AGTTTGTCAATAGTAC (sugars k3 d10 k3, PS): 42%; AGTATTACTCTAATCA (sugars k3 d10 k3, PS): 23%; AGCGGTACACTCCTTC (sugars k3 d10 k3, PS): 50% and 43%. For TACCACTCTAAGATTG (sugars k3 d10 k3, PS), the target mRNA inhibition worked out at 5%. On the same count and under the same terms, the value for CAATCACAAATACGAC (sugars k3 d10 k3, PS) was 18%; that for CTGCTTACAGATTTGC (sugars k3 d10 k3, PS) was 49%. On the same count and under the same terms, next, TTTAAGCCTTCGGTGC (sugars k3 d10 k3, PS): 13%; TGACACTTCTCTTGAC (sugars k3 d10 k3, PS): 30%.

Regarding TCCTAGCTTCATCAAA (sugars k3 d10 k3, PS), the target mRNA inhibition is 7%. Same read-out and setting: next, CTCTTGAGGGACAGTA (sugars k3 d10 k3, PS): 4%; GCCAACAGCACAGCGG (sugars k3 d10 k3, PS): 8%. Still for that read-out and setting: next, GGGAAAAGTGGTTGCC (sugars k3 d10 k3, PS): 9%.

Take ATAGTTTACCACCTTT (sugars k3 d10 k3, PS): the target mRNA inhibition came to 39%. The same measure, in the same setting: next, ACCAAATTGCACTCGC (sugars k3 d10 k3, PS): 40%; CATGAGTATAAGCCTG (sugars k3 d10 k3, PS): 50%; ACCGGAATTCGATCAC (sugars k3 d10 k3, PS): 35%. With AGTAGGTATAGTTTAC (sugars k3 d10 k3, PS), the target mRNA inhibition worked out at 10%. Still for that read-out and setting: the value for TAAGATTGTAAGCATT (sugars k3 d10 k3, PS) was 23%; that for TAAAAAGGCTCGATGG (sugars k3 d10 k3, PS) was 39%. Still for that read-out and setting: next, TAAAGTGTGATAGTTC (sugars k3 d10 k3, PS): 14%; GGATCCAAGCTACTGG (sugars k3 d10 k3, PS): 18%.

In the case of GGACTTTCTCCCCCAA (sugars k3 d10 k3, PS), the target mRNA inhibition is -5%. Still for that read-out and setting: the value for TAAGATAGCAGCACAA (sugars k3 d10 k3, PS) was -3%; that for CCAACCACTCGCTTTC (sugars k3 d10 k3, PS) was 26%; that for CACAGCTCGGGCGAGG (sugars k3 d10 k3, PS) was 25%. Same read-out and setting: next, CAACTCGCATCACCGG (sugars k3 d10 k3, PS): 9%. Take ACAAGTTACATGTTCC (sugars k3 d10 k3, PS): the target mRNA inhibition was determined as 21%.

Consider TTAAGAACTCCACAGC (sugars k3 d10 k3, PS), for which the target mRNA inhibition turned out to be 46%. On the same count and under the same terms, the value for CTCGCATCACCGGAAT (sugars k3 d10 k3, PS) was -14%; that for TTCGATCACCTTCCGC (sugars k3 d10 k3, PS) was 12%; that for TGTCAATTTATAGACC (sugars k3 d10 k3, PS) was 6%. Still for that read-out and setting: next, TACACCTTGAGTCATT (sugars k3 d10 k3, PS): 38%; GTCCCTGAAGGTGTTC (sugars k3 d10 k3, PS): 23%; CCTGGGTCAGCTGTCA (sugars k3 d10 k3, PS): 51%. Take TCCTCAAGCTCCGCCT (sugars k3 d10 k3, PS): the target mRNA inhibition came out at 23%. Still for that read-out and setting: the value for GGAATACTCTTCCAAG (sugars k3 d10 k3, PS) was 6%.

Take GTGTAAAACATTGCCT (sugars k3 d10 k3, PS): the target mRNA inhibition amounted to 0%. Same read-out and setting: next, AGGACTTGGCAGTCTG (sugars k3 d10 k3, PS): 30%; CCCGGAAATCGGCCTA (sugars k3 d10 k3, PS): 0%. Consider CTAAATACCACCACCT (sugars k3 d10 k3, PS), for which the target mRNA inhibition came to 12%.

With TTCGGTTAAAAATAGG (sugars k3 d10 k3, PS), the target mRNA inhibition is -7%.

For another data set, the target named is IRF4. The settings on record: ASO, MM.1R, 0.074 µM.
As to “GTTGTAAATGAGTCGG (sugars e1 k2 d9 k2 e2, PS)”, the target mRNA inhibition was 17%.

Still in this data set, the particulars now being: ASO, MM.1R, 0.222 µM.
“GTTGTAAATGAGTCGG (sugars e1 k2 d9 k2 e2, PS)”: the target mRNA inhibition is 38%.

Still in this data set, the particulars now being: ASO, MM.1R, 0.666 µM.
Turning to “GTTGTAAATGAGTCGG (sugars e1 k2 d9 k2 e2, PS)”, the target mRNA inhibition came out at 57%.

The data set is the same for the next values; noted with them: ASO, MM.1R, 1 µM.
TTAAAGGGTAAGCACT (sugars k3 d10 k3, PS): the target mRNA inhibition was -18%.

Turning to “AAGCTTGATAAAGGCT (sugars kkddddddddddkeke, PS)”, the target mRNA inhibition is -18%. On the same count and under the same terms, the value for CCGGTAGAGTGAGATG (sugars k3 d10 k3, PS) was -3%. Still for that read-out and setting: next, “GTTGTAAATGAGTCGG (sugars e1 k2 d9 k2 e2, PS)”: 69%.

Staying with this data set, now noted: ASO, MM.1R, 2 µM.
Turning to “GTTGTAAATGAGTCGG (sugars e1 k2 d9 k2 e2, PS)”, the target mRNA inhibition was 79%.

The same data set, now with this note: ASO, MM.1R, 4 µM.
For the sequence CGTAGCCCCTCAGGAA (sugars k3 d10 k3, PS), the target mRNA inhibition is 81% and 59%.

Still in this data set, the particulars now being: ASO, SK-MEL-28, 4 µM.
For the sequence GGATTCTATAAATAGA (sugars k3 d10 k3, PS), the target mRNA inhibition is 25%.

Turning to TGGCACAATTCTCTGA (sugars k3 d10 k3, PS), the target mRNA inhibition was determined as 13%. AAGCAACACGGGAATT (sugars k3 d10 k3, PS): the target mRNA inhibition turned out to be 22%. In the case of GGGTTACGCTTATTTT (sugars k3 d10 k3, PS), the target mRNA inhibition was 65%. Still for that read-out and setting: the value for CTGTGTAATGTAGGGA (sugars k3 d10 k3, PS) was 42%; that for TGTATAGTTCTCAACC (sugars k3 d10 k3, PS) was 43%. Still for that read-out and setting: the value for ATTAAAGAGCGCATTT (sugars k3 d10 k3, PS) was 13%. GATAATATACCCCAAA (sugars k3 d10 k3, PS): the target mRNA inhibition was determined as 33%.

Take TGTGAACCTGCTGGGC (sugars k3 d10 k3, PS): the target mRNA inhibition was determined as 2%. In the case of CTAACTTACAGGACTA (sugars k3 d10 k3, PS), the target mRNA inhibition stood at 31%.

Take TCAGATGTCACTGATT (sugars k3 d10 k3, PS): the target mRNA inhibition was 35%. On the same count and under the same terms, next, CTCTTAGGCACATCAA (sugars k3 d10 k3, PS): 61%. Same read-out and setting: the value for TATCAAAGATCTCCAC (sugars k3 d10 k3, PS) was 25%. With GTCGAACCTCTGGTTC (sugars k3 d10 k3, PS), the target mRNA inhibition is -10%.
